Experimental data reported in paper PMC2921948 (Clinical cancer research : an official journal of the …, 2010).
Where two headings read alike, the source gives them in different places.

Experiments:
[1] = biological target: T1, human serum albumin (HSA) (Homo sapiens, UniProt P02768); assay: fluorescence polarization displacement of dansyl sarcosine; type: binding
[2] = biological target: T1, human serum albumin (HSA); assay: as above; type: binding; remark: listed apart in the source

T1 sequence (P02768 25-609): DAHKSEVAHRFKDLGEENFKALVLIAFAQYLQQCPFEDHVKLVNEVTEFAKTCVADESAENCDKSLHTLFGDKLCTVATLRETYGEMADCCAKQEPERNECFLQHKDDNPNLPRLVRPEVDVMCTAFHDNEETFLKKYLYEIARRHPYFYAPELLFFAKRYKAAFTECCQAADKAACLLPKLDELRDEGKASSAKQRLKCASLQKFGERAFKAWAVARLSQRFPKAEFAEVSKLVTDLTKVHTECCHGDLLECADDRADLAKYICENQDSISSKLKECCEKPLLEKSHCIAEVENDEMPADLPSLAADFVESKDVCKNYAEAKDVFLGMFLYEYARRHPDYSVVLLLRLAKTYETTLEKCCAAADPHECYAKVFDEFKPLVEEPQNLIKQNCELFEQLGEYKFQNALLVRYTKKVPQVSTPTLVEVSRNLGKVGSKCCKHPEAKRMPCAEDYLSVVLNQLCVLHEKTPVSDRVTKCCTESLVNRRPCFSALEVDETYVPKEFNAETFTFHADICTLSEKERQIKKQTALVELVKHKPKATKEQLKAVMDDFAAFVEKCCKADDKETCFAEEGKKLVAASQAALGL

SMILES | IC50 [1] [µM] | IC50 [2] [µM]
CC1(C)CCC(c2ccc(Cl)cc2)=C(CN2CCN(c3ccc(C(=O)NS(=O)(=O)c4ccc(N[C@H](CCN5CCOCC5)CSc5ccccc5)c(S(=O)(=O)C(F)(F)F)c4)cc3)CC2)C1 [ABT-263] | 37 | –
CN(C)CC[C@H](CSc1ccccc1)Nc1ccc(S(=O)(=O)NC(=O)c2ccc(N3CCN(Cc4ccccc4-c4ccc(Cl)cc4)CC3)cc2)cc1[N+](=O)[O-] [ABT-737] | – | 711
